Data as given in PMC11932207, “Regulating AMPA Receptors with Isoxazole-4-Carboxamide Derivatives: An Electrophysiological Study” (Journal of Xenobiotics, 2025).
Like-named read-outs stand apart in the source and are kept apart here.

Experiments:
Assay type in all cases: cell-based
GluA2 = molecular target: T1, GluA2 (Rattus norvegicus, UniProt P19491); test: Whole-cell patch clamp recordings of homomeric GluA2 AMPA receptor currents and kinetics in transfected HEK293t cells
T1 construct: expressed in transfected cells; host or cells: HEK293T (HEK293) cells, transient co-transfection with a separate EGFP vector
Excerpt: (§1) The AMPA receptor subunits utilized in this study were of the flip isoform. The flip variant of the GluA2 subunit was originally provided by S. F. Heinemann (Salk Institute, La Jolla, CA, USA) in a pBlueScript plasmid. This plasmid was subsequently sub-cloned into a pRK vector to enable expression in HEK293 cells, which were sourced from Sigma, Germany. Additionally, the unedited version of GluA2 (R607Qjj, flip isoform) and enhanced green fluorescent protein (EGFP), both contained in pRK5 vectors, were generously supplied by P. H. Seeburg (Max Planck Institute for Medical Research, Heidelberg, Germany). Chemical-mediated ways induced transfection. GluA2 homomers were expressed into HEK293 cells by the co-transfection of 1 μg GluA2 plasmid with an equal amount of GFP expression vectors (1:1 ratio) into the cells. In addition, co-transfection was conducted for heteromeric GluA2/3 subunits at a ratio of 1:1.2 for optimum expression. For post-transfection experiments, cells were plated in 10% fetal calf serum and antibiotics in DMEM in Petri plates. These cultures were maintained under carefully controlled conditions—37 °C and 5% CO2 within a humidified incubator. The selection of cells for recordings was based on fluorescence intensity. Highly GFP-positive cells were identified and isolated for further analysis, ensuring precise targeting of transfected populations.
(§2) Whole-cell patch clamp recordings were performed on HEK293t cells 36–48 h after transfection. Experiments were conducted at 22 °C, maintaining a holding potential of −60 mV, using an Integrated Patch Amplifier (IPA) from Sutter Instruments (Novato, CA, USA). Data acquisition was managed with SutterPatch Software v. 1.1.1 (Sutter Instruments), employing a sampling rate of 10 kHz and setting the low-pass filter at 2 kHz. […] The external solution contained 150 mM NaCl, 2.8 mM KCl, 0.5 mM MgCl2, 2 mM CaCl2, and 10 mM HEPES, adjusted to a pH of 7.4 using NaOH. The internal pipette solution was composed of 110 mM CsF, 30 mM CsCl, 4 mM NaCl, 0.5 mM CaCl2, 10 mM trypsin-EDTA solution B (0.25%), 0.05% EDTA, and 10 mM HEPES, with the pH adjusted to 7.2 using CsOH.
(§3) A dual-barrel glass pipette (theta tube) was employed for the rapid delivery of glutamate and other solutions. The theta tube was attached to a high-speed piezoelectric solution exchange system (Automate Scientific, Berkeley, CA, USA). To assess the efficiency of solution exchange, open-tip potentials were measured by applying solutions with different ionic compositions after the patch was expelled from the pipette. The time required for a 10–90% change in the solution was generally less than […].
(§4) Data analysis was performed with Igor Pro8.04 software (Wave Metrics, Inc., Portland, OR, USA). AMPA receptor deactivation and desensitization kinetics were measured by applying 10 mM glutamate for 1 ms and 500 ms, respectively. The currents from the AMPA receptor were fitted to a double-exponential model to quantify deactivation and desensitization time constants measured from the double-exponential fits. The weighted tau (τw) is calculated as: τw = (τf × af) + (τs × as), where τf and τs are the time constants of fast and slow exponential components and af and as represent their relative amplitudes.
(§5) Data are presented as the mean ± standard deviation (SD). The total number of HEK293 cells engaged was n = 10. The experimental groups were compared to the wild type using a one-way analysis of variance (ANOVA). Statistical significance was assessed using p values: p < 0.05 (*) indicated significance, p < 0.01 (**) indicated high significance, and p < 0.001 (***) indicated very high significance. The value “ns” indicates non-significance. Concentration–response relationships were modeled using the Hill equation with the resulting combined plots via GraphPad Prism software (version 6.01, GraphPad Software). The data presented are the means from 3–4 experimental replicates. […]

GluA2/3 = molecular target: T2, GluA2/3 (UniProt P19491+P42263); test: Whole-cell patch clamp recordings of heteromeric GluA2/3 AMPA receptor currents and kinetics in transfected HEK293t cells
T2 construct: expressed in transfected cells; host or cells: HEK293T (HEK293) cells, transient co-transfection
Excerpt: as §1, §2, §3, §4, §5

GluN1a/2A = molecular target: T3, GluN1a/2A (Homo sapiens, UniProt Q05586+Q12879); test: Selectivity: whole-cell normalized peak current of NMDA receptor GluN1a/2A; settings: 16 µM compound, HEK293t, −60 mV
T3 construct: expressed in transfected cells; host or cells: HEK293t cells
Method: (§6) To evaluate the selectivity of CIC-1 and CIC-2 derivatives, their effects on GluN1a/2A and GluN1a/2B of the NMDA receptors were tested. The normalized peak current responses of the subunits alone and with CIC-1 and CIC-2 were determined (Figure 4).
(§7) Figure 4 The inhibitory actions of Isoxazole-4-carboxamide derivatives on the whole-cell currents mediated by GluA2, GluA2/3 AMPA receptor subtypes and GluN1a/2A, […] receptor subtypes. (a) represents data for CIC-1 and CIC-2 compounds. AMPA- and NMDA-induced currents (black bars) are then compared to currents recorded in the presence of 16 µM CIC compounds (white bars). Panels (b–e) show representative traces of whole-cell current responses to a 1 ms administration of 10 mM glutamate for the subunits. The traces show normalized responses for glutamate alone (black) and glutamate in combination with CIC compounds (color-coded). The recording was performed in HEK293t cells at −60 mV, pH 7.4, and 22 °C. Data present mean ± SD from 3–4 different experiments. *** p < 0.001; and “ns” indicates not significant.

GluN1a/2B = molecular target: T4, GluN1a/2B (Homo sapiens, UniProt Q05586+Q13224); test: Selectivity: whole-cell normalized peak current of NMDA receptor GluN1a/2B; settings: 16 µM compound, HEK293t, −60 mV
T4 construct: expressed in transfected cells; host or cells: HEK293t cells
Method: as §6, §7

[1] = 16 µM compound co-applied with agonist, HEK293t, −60 mV, pH 7.4, 22 °C, mean ± SD, n = 10
[2] = 16 µM compound, mean ± SD, n = 10
[3] = 10 mM glutamate for 1 ms, with compound, mean ± SD
[4] = 10 mM glutamate for 500 ms, with compound, mean ± SD
[5] = concentration–response fit, read-out: Log IC50 (converted)
[6] = glutamate alone after the compound, mean ± SD, n = 10

T1 sequence (P19491 22-883 isoform P19491-2 limits assumed): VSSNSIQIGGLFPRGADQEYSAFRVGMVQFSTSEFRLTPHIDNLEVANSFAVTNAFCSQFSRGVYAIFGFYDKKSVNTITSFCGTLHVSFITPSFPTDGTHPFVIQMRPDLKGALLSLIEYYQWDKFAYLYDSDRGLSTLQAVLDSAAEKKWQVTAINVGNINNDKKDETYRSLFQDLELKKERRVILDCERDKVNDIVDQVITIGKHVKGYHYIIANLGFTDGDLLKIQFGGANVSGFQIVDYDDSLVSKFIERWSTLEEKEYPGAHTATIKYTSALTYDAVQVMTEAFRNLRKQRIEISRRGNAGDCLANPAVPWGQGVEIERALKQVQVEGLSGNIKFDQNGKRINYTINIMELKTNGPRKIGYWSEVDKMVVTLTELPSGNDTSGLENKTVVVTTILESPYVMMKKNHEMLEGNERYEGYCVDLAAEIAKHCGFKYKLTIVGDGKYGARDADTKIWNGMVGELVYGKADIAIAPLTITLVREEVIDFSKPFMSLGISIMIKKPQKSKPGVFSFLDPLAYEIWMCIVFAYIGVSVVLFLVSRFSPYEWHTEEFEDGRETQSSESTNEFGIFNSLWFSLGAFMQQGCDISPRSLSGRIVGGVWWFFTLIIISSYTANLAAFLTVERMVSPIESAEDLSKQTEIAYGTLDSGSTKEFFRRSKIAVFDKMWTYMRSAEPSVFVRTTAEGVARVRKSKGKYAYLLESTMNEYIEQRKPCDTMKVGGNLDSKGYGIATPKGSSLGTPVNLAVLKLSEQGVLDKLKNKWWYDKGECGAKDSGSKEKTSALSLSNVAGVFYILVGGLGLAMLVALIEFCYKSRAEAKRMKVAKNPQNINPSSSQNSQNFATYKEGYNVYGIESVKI
T2 sequence (P19491 22-883 isoform P19491-2 limits assumed): as above
T2 sequence (P42263 29-894 isoform P42263-2 limits assumed): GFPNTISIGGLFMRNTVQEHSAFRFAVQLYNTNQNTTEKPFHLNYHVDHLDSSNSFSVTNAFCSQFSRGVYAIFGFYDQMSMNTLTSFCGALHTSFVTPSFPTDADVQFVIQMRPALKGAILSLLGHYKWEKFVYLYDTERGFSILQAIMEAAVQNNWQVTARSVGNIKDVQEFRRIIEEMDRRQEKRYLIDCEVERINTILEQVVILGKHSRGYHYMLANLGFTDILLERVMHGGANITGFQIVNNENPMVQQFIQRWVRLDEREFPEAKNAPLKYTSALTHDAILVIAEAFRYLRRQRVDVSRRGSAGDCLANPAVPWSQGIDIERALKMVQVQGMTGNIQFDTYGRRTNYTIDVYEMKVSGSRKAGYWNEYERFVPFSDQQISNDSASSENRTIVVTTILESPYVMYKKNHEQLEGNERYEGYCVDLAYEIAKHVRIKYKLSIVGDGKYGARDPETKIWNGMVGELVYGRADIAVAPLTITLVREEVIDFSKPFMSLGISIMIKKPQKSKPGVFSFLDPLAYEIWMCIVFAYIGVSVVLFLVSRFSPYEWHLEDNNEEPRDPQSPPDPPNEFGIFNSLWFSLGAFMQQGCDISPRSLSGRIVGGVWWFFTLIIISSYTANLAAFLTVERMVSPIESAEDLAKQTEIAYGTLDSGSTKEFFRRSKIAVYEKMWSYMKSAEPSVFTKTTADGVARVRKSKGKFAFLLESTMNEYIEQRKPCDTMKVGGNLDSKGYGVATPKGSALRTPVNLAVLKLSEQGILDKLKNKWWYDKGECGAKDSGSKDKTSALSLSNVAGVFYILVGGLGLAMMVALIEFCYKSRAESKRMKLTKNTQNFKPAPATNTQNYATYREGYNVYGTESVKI
T3 sequence (Q12879 23-1464, other chains not shown): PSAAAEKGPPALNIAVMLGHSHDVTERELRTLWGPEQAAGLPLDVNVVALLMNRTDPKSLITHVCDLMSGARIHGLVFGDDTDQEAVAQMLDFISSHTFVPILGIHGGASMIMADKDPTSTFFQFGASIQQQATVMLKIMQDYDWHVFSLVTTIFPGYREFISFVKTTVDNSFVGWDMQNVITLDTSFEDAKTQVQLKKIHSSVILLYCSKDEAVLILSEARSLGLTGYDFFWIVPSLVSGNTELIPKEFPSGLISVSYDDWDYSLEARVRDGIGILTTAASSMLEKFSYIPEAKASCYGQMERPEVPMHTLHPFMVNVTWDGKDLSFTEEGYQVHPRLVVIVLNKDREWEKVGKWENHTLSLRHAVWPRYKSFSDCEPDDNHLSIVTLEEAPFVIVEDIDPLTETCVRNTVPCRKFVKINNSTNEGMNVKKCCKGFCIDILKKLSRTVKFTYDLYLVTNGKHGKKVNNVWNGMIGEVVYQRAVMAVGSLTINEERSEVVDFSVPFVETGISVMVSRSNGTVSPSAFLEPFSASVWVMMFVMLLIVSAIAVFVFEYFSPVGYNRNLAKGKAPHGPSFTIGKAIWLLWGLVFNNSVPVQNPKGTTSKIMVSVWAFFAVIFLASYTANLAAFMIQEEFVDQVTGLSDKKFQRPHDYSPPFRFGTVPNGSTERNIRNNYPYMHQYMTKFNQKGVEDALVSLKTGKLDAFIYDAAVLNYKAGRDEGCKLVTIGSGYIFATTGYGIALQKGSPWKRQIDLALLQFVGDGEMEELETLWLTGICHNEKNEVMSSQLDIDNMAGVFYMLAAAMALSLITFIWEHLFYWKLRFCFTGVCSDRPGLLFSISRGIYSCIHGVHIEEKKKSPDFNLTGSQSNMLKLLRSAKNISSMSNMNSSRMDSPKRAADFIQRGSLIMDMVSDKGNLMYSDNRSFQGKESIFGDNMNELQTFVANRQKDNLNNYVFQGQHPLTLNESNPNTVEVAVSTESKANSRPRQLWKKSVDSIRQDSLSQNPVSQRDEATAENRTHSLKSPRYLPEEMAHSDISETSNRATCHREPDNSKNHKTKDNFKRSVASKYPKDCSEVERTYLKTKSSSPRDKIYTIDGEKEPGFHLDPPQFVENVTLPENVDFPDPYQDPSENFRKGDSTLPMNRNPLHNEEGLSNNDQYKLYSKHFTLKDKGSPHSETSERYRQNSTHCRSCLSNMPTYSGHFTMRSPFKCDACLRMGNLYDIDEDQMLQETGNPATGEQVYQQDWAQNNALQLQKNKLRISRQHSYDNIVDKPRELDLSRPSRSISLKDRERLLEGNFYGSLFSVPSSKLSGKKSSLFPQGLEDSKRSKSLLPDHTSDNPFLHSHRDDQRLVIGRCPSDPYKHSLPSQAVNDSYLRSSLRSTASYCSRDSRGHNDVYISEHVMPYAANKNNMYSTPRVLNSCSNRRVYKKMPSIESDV
T4 sequence (Q13224 27-1484, other chains not shown): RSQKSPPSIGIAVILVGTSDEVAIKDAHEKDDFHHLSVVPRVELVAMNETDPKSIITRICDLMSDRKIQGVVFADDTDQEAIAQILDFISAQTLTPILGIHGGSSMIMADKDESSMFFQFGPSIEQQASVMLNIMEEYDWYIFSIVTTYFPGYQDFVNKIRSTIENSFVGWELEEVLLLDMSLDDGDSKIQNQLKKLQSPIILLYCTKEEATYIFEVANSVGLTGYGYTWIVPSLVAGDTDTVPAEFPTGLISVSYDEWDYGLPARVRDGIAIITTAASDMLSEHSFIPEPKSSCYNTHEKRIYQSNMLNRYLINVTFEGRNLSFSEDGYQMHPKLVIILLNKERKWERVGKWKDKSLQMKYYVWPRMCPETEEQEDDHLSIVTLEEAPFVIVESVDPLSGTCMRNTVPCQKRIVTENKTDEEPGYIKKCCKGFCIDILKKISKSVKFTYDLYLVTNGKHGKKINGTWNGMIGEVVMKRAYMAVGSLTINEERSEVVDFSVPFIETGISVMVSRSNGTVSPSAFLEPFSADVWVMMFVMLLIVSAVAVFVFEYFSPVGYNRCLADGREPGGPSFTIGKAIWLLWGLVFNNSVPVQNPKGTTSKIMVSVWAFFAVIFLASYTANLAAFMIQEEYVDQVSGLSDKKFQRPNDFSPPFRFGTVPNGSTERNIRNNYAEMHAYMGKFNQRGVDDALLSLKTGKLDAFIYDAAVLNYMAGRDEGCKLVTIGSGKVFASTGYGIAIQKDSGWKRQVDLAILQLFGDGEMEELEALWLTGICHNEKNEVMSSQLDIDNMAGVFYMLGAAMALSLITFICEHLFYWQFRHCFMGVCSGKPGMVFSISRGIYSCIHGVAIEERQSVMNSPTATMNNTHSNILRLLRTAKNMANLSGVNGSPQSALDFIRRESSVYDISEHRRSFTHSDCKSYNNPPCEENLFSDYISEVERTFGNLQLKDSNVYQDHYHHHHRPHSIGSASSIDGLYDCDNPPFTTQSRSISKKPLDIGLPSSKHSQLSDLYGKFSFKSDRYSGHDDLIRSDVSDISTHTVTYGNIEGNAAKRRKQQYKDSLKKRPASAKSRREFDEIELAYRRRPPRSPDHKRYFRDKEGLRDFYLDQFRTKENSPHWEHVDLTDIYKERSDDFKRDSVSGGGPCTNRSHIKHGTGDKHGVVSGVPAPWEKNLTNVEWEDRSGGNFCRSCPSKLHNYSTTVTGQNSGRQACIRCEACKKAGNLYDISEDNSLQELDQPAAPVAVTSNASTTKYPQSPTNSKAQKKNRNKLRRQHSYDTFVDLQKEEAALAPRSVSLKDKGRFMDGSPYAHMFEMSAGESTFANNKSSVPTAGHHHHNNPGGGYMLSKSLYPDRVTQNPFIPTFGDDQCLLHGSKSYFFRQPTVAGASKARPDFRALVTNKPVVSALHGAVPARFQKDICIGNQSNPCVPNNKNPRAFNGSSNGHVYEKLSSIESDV

Amplitude (peak whole-cell current in presence of compound) (GluA2; [1]): 156 ± 7 pA
A/AI (amplitude ratio, glutamate alone / with compound) (GluA2; [2]): 8.11±0.41
t deact (weighted deactivation time constant) (GluA2; [3]): 8.3 ± 0.3 ms
IC50 (GluA2; [5]): 3.02 µM
Amplitude, applying glutamate alone after compound (GluA2; [6]): 1231±85 pA
IC50 (GluA2; inhibition of whole-cell peak current, concentration–response, Hill fit, read-out: IC50): 3.03 µM
Increase of deactivation time constant (τdeac) (GluA2; versus control): approximately 4 fold
Amplitude (peak whole-cell current in presence of compound) (GluA2/3; [1]): 73 ± 5 pA
A/AI (amplitude ratio, glutamate alone / with compound) (GluA2/3; [2]): 8.02±0.49
t deact (weighted deactivation time constant) (GluA2/3; [3]): 8.1 ± 0.4 ms
IC50 (GluA2/3; [5]): 3.09 µM
Amplitude, applying glutamate alone after compound (GluA2/3; [6]): 562±28 pA
Increase of deactivation time constant (τdeac) (GluA2/3; versus control): approximately 4 fold
Effect on normalized peak current (GluN1a/2A): statistically not significant
Effect on normalized peak current (GluN1a/2B): statistically not significant
Structure (SMILES): CSc1ccc(NC(=O)c2c(-c3c(Cl)cccc3Cl)noc2C)cc1 [CIC-1, 3-(2,6-dichlorophenyl)-5-methyl-N-(4-(methylthio)phenyl)isoxazole-4-carboxamide]
t des (weighted desensitization time constant) (GluA2; [4]): 0.6 ± 0.1 ms
t des (weighted desensitization time constant) (GluA2/3; [4]): 0.7 ± 0.2 ms
